This note sets out measurements from patent US10179767B2 (GENENTECH, INC., priority 2015, dated 2019).

Counter-ions that a name gives are not always drawn.

For this experiment, the target named is T1, hNav1.7 (Homo sapiens, UniProt Q15858).
T1 construct: expressed in transfected cells
T1 sequence (Q15858 whole entry): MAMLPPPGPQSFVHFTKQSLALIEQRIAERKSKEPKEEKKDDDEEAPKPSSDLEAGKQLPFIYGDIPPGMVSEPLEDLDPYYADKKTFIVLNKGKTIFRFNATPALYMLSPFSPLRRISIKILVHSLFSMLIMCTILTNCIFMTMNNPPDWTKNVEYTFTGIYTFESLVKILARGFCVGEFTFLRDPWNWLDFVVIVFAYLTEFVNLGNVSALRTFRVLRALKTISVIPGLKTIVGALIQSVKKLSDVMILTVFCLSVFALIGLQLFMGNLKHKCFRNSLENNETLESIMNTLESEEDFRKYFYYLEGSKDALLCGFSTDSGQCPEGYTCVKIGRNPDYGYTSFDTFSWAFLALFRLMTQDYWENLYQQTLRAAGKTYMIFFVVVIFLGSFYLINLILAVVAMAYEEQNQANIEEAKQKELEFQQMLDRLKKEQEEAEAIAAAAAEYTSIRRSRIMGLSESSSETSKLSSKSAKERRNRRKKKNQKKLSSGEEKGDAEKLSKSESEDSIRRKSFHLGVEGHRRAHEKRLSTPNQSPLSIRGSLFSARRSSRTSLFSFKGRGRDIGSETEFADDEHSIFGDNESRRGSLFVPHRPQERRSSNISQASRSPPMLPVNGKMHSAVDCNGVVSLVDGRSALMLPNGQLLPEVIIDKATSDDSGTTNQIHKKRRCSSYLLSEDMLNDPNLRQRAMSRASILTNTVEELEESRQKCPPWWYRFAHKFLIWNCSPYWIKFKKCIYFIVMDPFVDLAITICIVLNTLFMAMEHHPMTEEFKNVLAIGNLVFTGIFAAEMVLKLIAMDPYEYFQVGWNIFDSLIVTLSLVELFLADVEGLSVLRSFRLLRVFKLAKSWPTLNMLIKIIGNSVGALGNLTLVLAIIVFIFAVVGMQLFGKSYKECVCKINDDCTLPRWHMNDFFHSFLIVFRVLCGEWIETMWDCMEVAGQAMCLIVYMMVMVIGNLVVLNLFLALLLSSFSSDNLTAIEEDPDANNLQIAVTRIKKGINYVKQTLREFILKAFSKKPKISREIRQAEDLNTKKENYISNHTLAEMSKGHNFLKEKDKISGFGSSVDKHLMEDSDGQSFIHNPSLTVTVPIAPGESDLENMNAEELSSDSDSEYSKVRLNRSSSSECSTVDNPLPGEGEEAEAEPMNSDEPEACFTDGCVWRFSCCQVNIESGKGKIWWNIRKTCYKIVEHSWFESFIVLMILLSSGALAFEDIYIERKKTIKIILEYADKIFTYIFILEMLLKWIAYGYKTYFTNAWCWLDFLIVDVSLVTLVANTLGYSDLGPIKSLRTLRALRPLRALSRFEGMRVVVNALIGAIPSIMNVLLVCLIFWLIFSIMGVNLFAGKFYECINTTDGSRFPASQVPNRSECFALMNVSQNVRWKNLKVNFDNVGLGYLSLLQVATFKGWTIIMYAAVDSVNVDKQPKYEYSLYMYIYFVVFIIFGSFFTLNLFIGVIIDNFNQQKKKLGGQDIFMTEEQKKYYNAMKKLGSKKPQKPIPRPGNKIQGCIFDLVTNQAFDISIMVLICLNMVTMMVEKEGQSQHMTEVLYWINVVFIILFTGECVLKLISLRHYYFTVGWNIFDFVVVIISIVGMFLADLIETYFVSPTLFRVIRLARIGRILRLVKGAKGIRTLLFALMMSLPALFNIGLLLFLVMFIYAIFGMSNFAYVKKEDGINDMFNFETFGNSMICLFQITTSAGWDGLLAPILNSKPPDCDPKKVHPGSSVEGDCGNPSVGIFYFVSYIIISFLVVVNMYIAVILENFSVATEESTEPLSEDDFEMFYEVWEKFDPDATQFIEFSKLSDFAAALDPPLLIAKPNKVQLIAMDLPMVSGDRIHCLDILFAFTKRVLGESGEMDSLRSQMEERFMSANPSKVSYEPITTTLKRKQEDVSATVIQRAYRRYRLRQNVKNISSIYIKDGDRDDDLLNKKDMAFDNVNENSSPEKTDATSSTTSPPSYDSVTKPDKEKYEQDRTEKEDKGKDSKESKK
T1 sequence (Q07699 19-218 partner): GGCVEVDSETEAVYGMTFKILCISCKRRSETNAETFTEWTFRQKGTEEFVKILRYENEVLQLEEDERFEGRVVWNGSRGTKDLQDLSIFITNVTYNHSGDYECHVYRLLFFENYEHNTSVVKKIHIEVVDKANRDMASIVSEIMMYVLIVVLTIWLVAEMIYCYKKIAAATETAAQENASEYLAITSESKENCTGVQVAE
The experiment in a line: Tritiated sulfonamide binding to membranes from cells expressing hNav1.7 and the β1 subunit (Nav 1.7 ligand binding assay, competitive). The following applies: competition with 100 pM [3H]compound, room temperature, 18 h. The method, then:
Tritiated Sulfonamide Binding to Membranes Isolated from Cells that Heterologously Express hNav1.7 and the β1 Subunit
Preparation of membranes containing recombinantly expressed sodium channels: Frozen recombinant cell pellets were thawed on ice and diluted to 4 times the cell pellet weight with ice cold 50 mM Tris HCl, pH 7.4 buffer. The cell suspensions were homogenized on ice using a motorized glass dounce homogeniser. Homogenates were further diluted 8.4 times with ice cold 50 mM Tris HCl, pH 7.4 buffer and then centrifuged at 200×g at 4° C. for 15 min. The supernatants were collected and centrifuged at 10000×g at 4° C. for 50 min. The pellets were then re-suspended in 100 mM NaCl, 20 mM Tris HCl, pH 7.4 buffer containing 1% v/v protease inhibitors (Calbiochem) and re-homogenized on ice. The homogenized membranes were then processed through a syringe equipped with a 26 gauge needle. Protein concentrations were determined by Bradford Assay and the membranes were stored at −80° C.
Radioligand Binding Studies:
Saturation experiments. A competitive NaV1.7 inhibitor having a methyl group was tritiated. Three tritiums were incorporated in place of methyl hydrogens to generate [^3H]compound. Binding of this radioligand was preformed in 5 mL borosilicate glass test tubes at room temperature. Binding was initiated by adding membranes to increasing concentrations of [^3H]compound in 100 mM NaCl, 20 mM Tris HCl, pH 7.4 buffer containing 0.01% w/v bovine serum albumin (BSA) for 18 h. Non-specific binding was determined in the presence of 1 μM unlabelled compound. After 18 h, the reactants were filtered through GF/C glass fiber filters presoaked in 0.5% w/v polyethylene imine Filters were washed with 15 mL ice cold 100 mM NaCl, 20 mM Tris HCl, pH7.4 buffer containing 0.25% BSA to separate bound from free ligand. [^3H]compound bound to filters was quantified by liquid scintillation counting.
Competitive Binding Experiments:
Binding reactions were preformed in 96-well polypropylene plates at room temperature for 18 h. In 360 μL, membranes were incubated with 100 pM [^3H]compound and increasing concentrations of Test Compound. Non-specific binding was defined in the presence of 1 μM unlabelled compound. Reactions were transferred and filtered through 96-well glass fiber/C filter plates presoaked with 0.5% polyethylene imine. The filtered reactions were washed 5 times with 200 μL ice cold buffer containing 0.25% BSA. Bound radioactivity was determined by liquid scintillation counting. Data Analysis: For saturation experiments, non-specific binding was subtracted from total binding to provide specific binding and these values were recalculated in terms of pmol ligand bound per mg protein. Saturation curves were constructed and dissociation constants were calculated using the single site ligand binding model: Beq=(Bmax*X)/(X+Kd), where Beq is the amount of ligand bound at equilibrium, Bmax is the maximum receptor density, Kd is the dissociation constant for the ligand, and X is the free ligand concentration. For competition studies percent inhibition was determined and IC50 values were calculated using a 4 parameter logistic model (% inhibition=(A+((B−A)/(1+((x/C)⨣D)))) using XLfit, where A and B are the maximal and minimum inhibition respectively, C is the IC50 concentration and D is the (Hill) slope.
The compound `CS(=O)(=O)NC(=O)c1cc(C2CC2)c(OCC2(F)CCN(Cc3cc(C(F)(F)F)cc(C4CC4)n3)CC2)cc1F` [Example 43, 5-cyclopropyl-4-((1-((6-cyclopropyl-4-(trifluoromethyl)pyridin-2-yl)methyl)-4-fluoropiperidin-4-yl)methoxy)-2-fluoro-N-(methylsulfonyl)benzamide] had an IC50 of 9.8 nM.
For `CC(c1ncc(Cl)cc1Cl)N1CCC(COc2cc(F)c(C(=O)NS(C)(=O)=O)cc2C2CC2)CC1` (centres unmarked) [Example 44, 5-cyclopropyl-4-((1-(1-(3,5-dichloropyridin-2-yl)ethyl)piperidin-4-yl)methoxy)-2-fluoro-N-(methylsulfonyl)benzamide] the value was 18 nM; for `CC(c1cc(Cl)cc(C2CC2)n1)N1CCC(COc2cc(F)c(C(=O)NS(C)(=O)=O)cc2C2CC2)CC1` (centres unmarked) [Example 46, 4-((1-(1-(4-chloro-6-cyclopropylpyridin-2-yl)ethyl)piperidin-4-yl)methoxy)-5-cyclopropyl-2-fluoro-N-(methylsulfonyl)benzamide], 12 nM.
For `CC(c1cc(Cl)cc(C2CC2)n1)N1CCC(COc2cc(F)c(C(=O)NS(=O)(=O)C3CC3)cc2C2CC2)CC1` (centres unmarked) [Example 47, 4-((1-(1-(4-chloro-6-cyclopropylpyridin-2-yl)ethyl)piperidin-4-yl)methoxy)-5-cyclopropyl-N-(cyclopropylsulfonyl)-2-fluorobenzamide] the value was 9.9 nM.
For `CC(c1cc(Cl)cc(Cl)c1)N1CCC2(CC1)CC(Oc1cc(F)c(C(=O)NS(C)(=O)=O)cc1C1CC1)C2` (centres unmarked) [Example 48, 5-cyclopropyl-4-((7-(1-(3,5-dichlorophenyl)ethyl)-7-azaspiro[3.5]nonan-2-yl)oxy)-2-fluoro-N-(methylsulfonyl)benzamide] the value was 9 nM; for `CS(=O)(=O)NC(=O)c1cc(C2CC2)c(OCC2CCN(Cc3cc(Cl)cc(C4CC4)n3)CC2)cc1F` [Example 49, 4-((1-((4-chloro-6-cyclopropylpyridin-2-yl)methyl)piperidin-4-yl)methoxy)-5-cyclopropyl-2-fluoro-N-(methylsulfonyl)benzamide], 11 nM; for `CC(c1cc(C(F)(F)F)cc(C2CC2)n1)N1CCC(COc2cc(F)c(C(=O)NS(C)(=O)=O)cc2C2CC2)CC1` (centres unmarked) [Example 50, 5-cyclopropyl-4-((1-(1-(6-cyclopropyl-4-(trifluoromethyl)pyridin-2-yl)ethyl)piperidin-4-yl)methoxy)-2-fluoro-N-(methylsulfonyl)benzamide], 9.1 nM.
Compound `CC(c1cc(C(F)(F)F)cc(C2CC2)n1)N1CCC(COc2cc(F)c(C(=O)NS(=O)(=O)C3CC3)cc2C2CC2)CC1` (centres unmarked) [Example 51, 5-cyclopropyl-4-((1-(1-(6-cyclopropyl-4-(trifluoromethyl)pyridin-2-yl)ethyl)piperidin-4-yl)methoxy)-N-(cyclopropylsulfonyl)-2-fluorobenzamide] returned an IC50 of 11 nM.
For `C[C@@H]1[C@H](Oc2cc(F)c(C(=O)NS(C)(=O)=O)cc2C2CC2)CCCN1Cc1cc(Cl)cc(Cl)c1` [Example 52, 5-cyclopropyl-4-(((2R,3R)-1-(3,5-dichlorobenzyl)-2-methylpiperidin-3-yl)oxy)-2-fluoro-N-(methylsulfonyl)benzamide] the value was 2.4 nM.
For `CS(=O)(=O)NC(=O)c1cc(C2CC2)c(OCC2CCN(Cc3cc(Cl)cc(C(F)(F)F)n3)CC2)cc1F` [Example 53, 4-((1-((4-chloro-6-(trifluoromethyl)pyridin-2-yl)methyl)piperidin-4-yl)methoxy)-5-cyclopropyl-2-fluoro-N-(methylsulfonyl)benzamide] the value was 9.4 nM; for `O=C(NS(=O)(=O)C1CC1)c1cc(C2CC2)c(OCC2CCN(Cc3cc(Cl)cc(C(F)(F)F)n3)CC2)cc1F` [Example 54], 4.2 nM.
For `CC(C)Oc1ncc(CN2CCC(F)(COc3cc(F)c(C(=O)NS(C)(=O)=O)cc3C3CC3)CC2)cc1Cl` [Example 55, 4-((1-((5-chloro-6-isopropoxypyridin-3-yl)methyl)-4-fluoropiperidin-4-yl)methoxy)-5-cyclopropyl-2-fluoro-N-(methylsulfonyl)benzamide] the value was 5.6 nM; for `CC(C)Oc1ncc(CN2CCC(F)(COc3cc(F)c(C(=O)NS(=O)(=O)C4CC4)cc3C3CC3)CC2)cc1Cl` [Example 56, 4-((1-((5-chloro-6-isopropoxypyridin-3-yl)methyl)-4-fluoropiperidin-4-yl)methoxy)-5-cyclopropyl-N-(cyclopropylsulfonyl)-2-fluorobenzamide], 6.8 nM.
Consider `C[C@@H](c1cc(Cl)cc(Cl)c1)N1CCC(COc2cc(F)c(C(=O)NS(=O)(=O)C3(F)CC3)cc2C2CC2)CC1` [Example 57, (S)-4-((2-cyclopropyl-5-fluoro-4-(((1-fluorocyclopropyl)sulfonyl)carbamoyl)phenoxy)methyl)-1-(1-(3,5-dichlorophenyl)ethyl)piperidin-1-ium trifluoroacetate], for which the IC50 is 8.6 nM.
For `C[C@@H](c1cc(Cl)cc(Cl)c1)N1CCC(F)(COc2cc(F)c(C(=O)NS(=O)(=O)N3CCC3)cc2C2CC2)CC1` [Example 58, (S)—N-(azetidin-1-ylsulfonyl)-5-cyclopropyl-4-((1-(1-(3,5-dichlorophenyl)ethyl)-4-fluoropiperidin-4-yl)methoxy)-2-fluorobenzamide] the value was 5.6 nM.
For `O=C(NS(=O)(=O)C1CC1)c1cc(C2CC2)c(OCC2(F)CCN(c3cc(C(F)(F)F)c(Cl)cn3)CC2)cc1F` [Example 59, 4-((1-(5-chloro-4-(trifluoromethyl)pyridin-2-yl)-4-fluoropiperidin-4-yl)methoxy)-5-cyclopropyl-N-(cyclopropylsulfonyl)-2-fluorobenzamide] the value was 9.3 nM; for `CS(=O)(=O)NC(=O)c1ccc(OCC2CCN(Cc3cc(C(F)(F)F)ccc3Cl)CC2)c(C2CC2)c1` [Example 60, 4-((1-(2-chloro-5-(trifluoromethyl)benzyl)piperidin-4-yl)methoxy)-3-cyclopropyl-N-(methylsulfonyl)benzamide], 8.1 nM.
For `CC(c1cc(Cl)cc(Cl)c1)N1CCC(COc2ccc(C(=O)NS(C)(=O)=O)cc2C2CC2)CC1` (centres unmarked) [Example 61, 3-cyclopropyl-4-((1-(1-(3,5-dichlorophenyl)ethyl)piperidin-4-yl)methoxy)-N-(methylsulfonyl)-benzamide], the IC50 was 10 nM.
For `CS(=O)(=O)NC(=O)c1ccc(OCC2CCN(Cc3cc(C(F)(F)F)cc(Cl)c3F)CC2)c(C2CC2)c1` [Example 62, 4-((1-(3-chloro-2-fluoro-5-(trifluoromethyl)benzyl)piperidin-4-yl)methoxy)-3-cyclopropyl-N-(methylsulfonyl)benzamide] the value was 9.8 nM.
For `CS(=O)(=O)NC(=O)c1cc(C2CC2)c(OCC2(F)CCN(Cc3cc(C(F)(F)F)ccc3Cl)CC2)cc1F` [Example 63, 4-((1-(2-chloro-5-(trifluoromethyl)benzyl)-4-fluoropiperidin-4-yl)methoxy)-5-cyclopropyl-2-fluoro-N-(methylsulfonyl)benzamide] the value was 7 nM.
